Tested on: SARS-CoV-2
Test: Antiviral activity against SARS-CoV-2 Omicron BA.5 variant infected in African green monkey Vero E6 cells assessed as inhibition in viral replication at 25 ug/ml preincubated with cell culture for 1 hr and further infected with virus for 1 hr followed by removal of virus particles and subsequent replacement of medium containing compound measured for 72 hrs post-infection by RT-PCR analysis relative to control
Format: functional
Details: Severe acute respiratory syndrome coronavirus 2, Omicron BA.5, Vero C1008, time 73 hrs

## O=c1cc(-c2ccccc2)oc2cc(O)c(O)c(O)c12 [BAICALEIN]
  inhibition at 25 µg/mL: > 50%

From ChEMBL document CHEMBL5532636 (Eur J Med Chem, 2023)
